Test in all cases: 50% growth inhibitory concentration (IC50) determination assay
Common to all, as to assay type: cell-based
Holding throughout (conditions): Iso-Sensitest broth, 0.098 = detection limit

The subject of assay [1] is S. aureus (ATCC29213). The protocol:
(§1) Stock compounds in DMSO were serially two-fold diluted (range from 50 to 0.097 μM final concentration) in 384 wells microtiter plates and inoculated with 49 μL the bacterial suspension in Iso-Sensitest broth medium to have a final cell concentration of ˜5×10^5 CFU/mL in a final volume/well of 50 μL/well. Microtiter plates were incubated at 35±2° C. Bacterial cell growth was determined with the measurement of optical density at λ=600 nm each 20 minutes over a time course of 16 h. […] GP-6 (Example 4.131 disclosed in WO 2012/125746 A1) was used as the reference compound in Table 6-8. […] The data of IC50 over S. aureus (ATCC29213), K. pneumoniae (ATCC10031), and A. baumannii (ATCC17978) are illustrated in Table 6.

Assay [2] relates to A. baumannii (ATCC17978). On the procedure:
as §1

In assay [3] the test system is K. pneumoniae (ATCC10031). The protocol:
as §1

[4] abbreviates: Acinetobacter baumannii, ATCC17978, A. baumannii ATCC17978.

Bounds are passed on as bounds.

With `CNc1cc(F)cc2c1[nH]c1ncc(-c3cnc4c(c3)c(=O)c(C(=O)O)cn4NC)c(N3CC4[C@H](CCN4C)C3)c12` (stereo partly drawn) [Example 1.210], the IC50 in assay [1] (Staphylococcus aureus), in assay [2] (setting [4]) and in assay [3] (Klebsiella pneumoniae) was less than 0.098 µM throughout.

In the case of `CNc1cc(F)cc2c1[nH]c1ncc(-c3cnc4c(c3)c(=O)c(C(=O)O)cn4C)c(N3CCC(F)(F)C3)c12` [Example 1.16], the IC50 was less than 0.098 µM in assay [1] (Staphylococcus aureus), 0.308 µM in assay [2] (setting [4]) and less than 0.098 µM in assay [3] (Klebsiella pneumoniae).

Regarding `CNc1cc(F)c(F)c2c1[nH]c1ncc(-c3cnc4c(c3)c(=O)c(C(=O)O)cn4NC)c(N(C)C)c12` [Example 1.72], the IC50 in assay [1] (Staphylococcus aureus), in assay [2] (setting [4]) and in assay [3] (Klebsiella pneumoniae) was less than 0.098 µM throughout.

On to `CNc1cc(F)c(F)c2c1[nH]c1ncc(-c3cnc4c(c3)c(=O)c(C(=O)O)cn4C)c(N3CC4[C@H](CCN4CCO)C3)c12` (stereo partly drawn) [Example 1.261], for which the half-inhibitory concentration (IC50) was less than 0.098 µM in assay [1] (Staphylococcus aureus), 0.215 µM in assay [2] (setting [4]) and less than 0.098 µM in assay [3] (Klebsiella pneumoniae).

For the compound `CNc1cc(F)c(F)c2c1[nH]c1ncc(-c3cnc4c(c3)c(=O)c(C(=O)O)cn4C)c(N3CCC[C@H]3CO)c12` [Example 1.77], the IC50 in assay [1] (Staphylococcus aureus) was less than 0.098 µM; in assay [2] (setting [4]), 0.291 µM; in assay [3] (Klebsiella pneumoniae), 0.111 µM.

As to `CNc1cc(F)c(F)c2c1[nH]c1ncc(-c3cnc4c(c3)c(=O)c(C(=O)O)cn4NCC(F)(F)F)c(N(C)C)c12` [Example 5.03, 6-(4-(dimethylamino)-5,6-difluoro-8-(methylamino)-9H-pyrido[2,3-b]indol-3-yl)-4-oxo-1-((2,2,2-trifluoroethyl)amino)-1,4-dihydro-1,8-naphthyridine-3-carboxylic acid], the IC50 in assay [1] (Staphylococcus aureus) was less than 0.098 µM; in assay [2] (setting [4]), 0.745 µM; in assay [3] (Klebsiella pneumoniae) it was 0.275 µM.

In the case of `CCn1cc(C(=O)O)c(=O)c2cc(-c3cnc4[nH]c5c(NC)cc(F)c(F)c5c4c3N(C)C)cnc21` [Example 1.18], the IC50 in assay [1] (Staphylococcus aureus) is less than 0.098 µM; in assay [2] (setting [4]), 0.326 µM; in assay [3] (Klebsiella pneumoniae), 0.132 µM.

As for `CNc1cc(F)c(F)c2c1[nH]c1ncc(-c3cnc4c(c3)c(=O)c(C(=O)O)cn4C)c(N3C[C@@H]4OCCN(C)[C@H]4C3)c12` [Example 3.24A], the results for the IC50 in assay [1] (Staphylococcus aureus), in assay [2] (setting [4]) and in assay [3] (Klebsiella pneumoniae) were less than 0.098 µM, 0.315 µM and less than 0.098 µM, respectively.

In the case of `CNc1cc(F)c(F)c2c1[nH]c1ncc(-c3cnc4c(c3)c(=O)c(C(=O)O)cn4[C@@H](C)CO)c(N3CCO[C@@H](C)C3)c12` [Example 1.250], the IC50 in assay [1] (Staphylococcus aureus) is less than 0.098 µM; in assay [2] (setting [4]), 0.476 µM; in assay [3] (Klebsiella pneumoniae), 0.14 µM.

Regarding `CNc1c(F)cc(F)c2c1[nH]c1ncc(-c3cnc4c(c3)c(=O)c(C(=O)O)cn4C3CCNC3)c(N(C)C)c12` (stereo not drawn) [Example 1.107], the figures for the IC50 in assay [1] (Staphylococcus aureus), in assay [2] (setting [4]) and in assay [3] (Klebsiella pneumoniae) were 0.189 µM, 0.699 µM and less than 0.098 µM, respectively.

With `CNc1cc(F)cc2c1[nH]c1ncc(-c3cnc4c(c3)c(=O)c(C(=O)O)cn4C)c(N3CCCOCC3)c12` [Example 1.60], the results for the IC50 in assay [1] (Staphylococcus aureus), in assay [2] (setting [4]) and in assay [3] (Klebsiella pneumoniae) were less than 0.098 µM, 0.248 µM and less than 0.098 µM, respectively.

For `CNc1cc(F)cc2c1[nH]c1ncc(-c3cnc4c(c3)c(=O)c(C(=O)O)cn4C)c(N3CC4[C@@H](C3)OCCN4C)c12` (stereo partly drawn) [Example 1.112], the IC50 was less than 0.098 µM in assay [1] (Staphylococcus aureus), 0.334 µM in assay [2] (setting [4]) and less than 0.098 µM in assay [3] (Klebsiella pneumoniae).

Regarding `CNc1cc(F)c(F)c2c1[nH]c1ncc(-c3cnc4c(c3)c(=O)c(C(=O)O)cn4CC(C)(C)N(C)C)c(N(C)C)c12` [Example 1.178], the results for the concentration for half-maximal inhibition (IC50) in assay [1] (Staphylococcus aureus), in assay [2] (setting [4]) and in assay [3] (Klebsiella pneumoniae) were less than 0.098 µM, 0.235 µM and less than 0.098 µM, respectively.

As for `CNc1cc(F)c(F)c2c1[nH]c1ncc(-c3cnc4c(c3)c(=O)c(C(=O)O)cn4C)c(N3C[C@H](C)[C@@H](N(C)C)C3)c12` [Example 1.167], the 50% inhibitory concentration (IC50) is less than 0.098 µM in assay [1], 0.143 µM in assay [2] (A. baumannii ATCC17978) and less than 0.098 µM in assay [3].

For the compound `CNc1cc(F)c(F)c2c1[nH]c1ncc(-c3cnc4c(c3)c(=O)c(C(=O)O)cn4C)c(N3CC[C@@]4(CN(C)CCO4)C3)c12` [Example 3.16A], the figures for the IC50 in assay [1] (Staphylococcus aureus), in assay [2] (setting [4]) and in assay [3] (Klebsiella pneumoniae) were less than 0.098 µM, 0.161 µM and less than 0.098 µM, respectively.

For the compound `CNc1cc(F)cc2c1[nH]c1ncc(-c3cnc4c(c3)c(=O)c(C(=O)O)cn4C)c(N3C[C@H](F)[C@@H](N(C)C)C3)c12` [Example 1.169], the IC50 in assay [1] (Staphylococcus aureus) is less than 0.098 µM; in assay [2] (setting [4]), 0.229 µM; in assay [3] (Klebsiella pneumoniae), less than 0.098 µM.

Turning to `CNc1c(F)c(F)cc2c1[nH]c1ncc(-c3cnc4c(c3)c(=O)c(C(=O)O)cn4C3CCNC3)c(N3CCCC3)c12` (stereo not drawn) [Example 1.76], the IC50 was less than 0.098 µM in assay [1] (Staphylococcus aureus), 0.643 µM in assay [2] (setting [4]) and less than 0.098 µM in assay [3] (Klebsiella pneumoniae).

Turning to `CNc1cc(F)c(F)c2c1[nH]c1ncc(-c3cnc4c(c3)c(=O)c(C(=O)O)cn4C)c(N3CCC4(C[C@@H]4N(C)C)C3)c12` (stereo partly drawn) [Example 6.01, 6-(4-(trans-2-(Dimethylamino)-5-azaspiro[2.4]heptan-5-yl)-5,6-difluoro-8-(methylamino)-9H-pyrido[2,3-b]indol-3-yl)-1-methyl-4-oxo-1,4-dihydro-1,8-naphthyridine-3-carboxylic acid], the IC50 in assay [1] (Staphylococcus aureus) was less than 0.098 µM; in assay [2] (setting [4]) it was 0.257 µM; in assay [3] (Klebsiella pneumoniae) it was 0.118 µM.

On to `CNc1cc(F)c(F)c2c1[nH]c1ncc(-c3cnc4c(c3)c(=O)c(C(=O)O)cn4Cc3cnco3)c(N(C)C)c12` [Example 1.87], for which the IC50 in assay [1] (Staphylococcus aureus) is less than 0.098 µM; in assay [2] (setting [4]), 0.49 µM; in assay [3] (Klebsiella pneumoniae) it was 0.122 µM.

`CNc1cc(F)c(F)c2c1[nH]c1ncc(-c3cnc4c(c3)c(=O)c(C(=O)O)cn4C)c(N3CCN(C(C)C)CC3)c12` [Example 1.234]: the IC50 in assay [1] (Staphylococcus aureus) was 0.283 µM; in assay [2] (setting [4]), 0.821 µM; in assay [3] (Klebsiella pneumoniae) it was less than 0.098 µM.

Take `CNc1cc(F)c(F)c2c1[nH]c1ncc(-c3cnc4c(c3)c(=O)c(C(=O)O)cn4C)c(N3C[C@H]4OCCN(C)[C@H]4C3)c12` [Example 3.14A]: the IC50 in assay [1] (Staphylococcus aureus) was less than 0.098 µM; in assay [2] (setting [4]), 0.075 µM; in assay [3] (Klebsiella pneumoniae), less than 0.098 µM.

For the compound `CNc1cc(F)c(F)c2c1[nH]c1ncc(-c3cnc4c(c3)c(=O)c(C(=O)O)cn4C)c(N3CCO[C@H](CN(C)C)C3)c12` [Example 4.02A, (R)-6-(4-(2-((dimethylamino)methyl)morpholino)-5,6-difluoro-8-(methylamino)-9H-pyrido[2,3-b]indol-3-yl)-1-methyl-4-oxo-1,4-dihydro-1,8-naphthyridine-3-carboxylic acid], the IC50 in assay [1] (Staphylococcus aureus) is 0.197 µM; in assay [2] (setting [4]), 0.437 µM; in assay [3] (Klebsiella pneumoniae), less than 0.098 µM.

As for `CNc1cc(F)c(F)c2c1[nH]c1ncc(-c3cnc4c(c3)c(=O)c(C(=O)O)cn4C)c(N3CCN(C4CC4)CC3)c12` [Example 1.204], the results for the IC50 in assay [1] (Staphylococcus aureus), in assay [2] (setting [4]) and in assay [3] (Klebsiella pneumoniae) were less than 0.098 µM, 0.201 µM and less than 0.098 µM, respectively.

With `CNc1cc(F)c(F)c2c1[nH]c1ncc(-c3cnc4c(c3)c(=O)c(C(=O)O)cn4C)c(N(C)CCOC)c12` [Example 1.33], the IC50 is less than 0.098 µM in assay [1] (Staphylococcus aureus), 0.252 µM in assay [2] (setting [4]) and less than 0.098 µM in assay [3] (Klebsiella pneumoniae).

As to `CNc1cc(F)cc2c1[nH]c1ncc(-c3cnc4c(c3)c(=O)c(C(=O)O)cn4C)c(N3C[C@@H]4OCCN(C)[C@@H]4C3)c12` [Example 3.22B], the IC50 in assay [1] (Staphylococcus aureus) was less than 0.098 µM; in assay [2] (setting [4]), 0.256 µM; in assay [3] (Klebsiella pneumoniae) it was less than 0.098 µM.

As for `CNc1cc(F)cc2c1[nH]c1ncc(-c3cnc4c(c3)c(=O)c(C(=O)O)cn4C(C)(C)CN3CCCC3)c(N(C)C)c12` [Example 1.17], the half-maximal inhibitory concentration (IC50) was less than 0.098 µM in assay [1] (Staphylococcus aureus), 0.515 µM in assay [2] (setting [4]) and 0.101 µM in assay [3] (Klebsiella pneumoniae).

On to `CNc1cc(F)cc2c1[nH]c1ncc(-c3cnc4c(c3)c(=O)c(C(=O)O)cn4C)c(N3CCSCC3)c12` [Example 1.66], for which the concentration for half-maximal inhibition (IC50) in assay [1] (Staphylococcus aureus) was less than 0.098 µM; in assay [2] (setting [4]) it was 0.415 µM; in assay [3] (Klebsiella pneumoniae), less than 0.098 µM.

For `CCC(Cn1cc(C(=O)O)c(=O)c2cc(-c3cnc4[nH]c5c(NC)cc(F)c(F)c5c4c3N3CCOCC3)cnc21)N(C)C` (stereo not drawn) [Example 1.79], the IC50 in assay [1] (Staphylococcus aureus) was less than 0.098 µM; in assay [2] (setting [4]), 0.173 µM; in assay [3] (Klebsiella pneumoniae) it was less than 0.098 µM.

On to `CNc1cc(F)cc2c1[nH]c1ncc(-c3cnc4c(c3)c(=O)c(C(=O)O)cn4C)c(N3CCCC3)c12` [Example 1.46], for which the IC50 in assay [1] (Staphylococcus aureus) was less than 0.098 µM; in assay [2] (setting [4]) it was 0.277 µM; in assay [3] (Klebsiella pneumoniae), less than 0.098 µM.

As to `CNc1cc(F)c(F)c2c1[nH]c1ncc(-c3cnc4c(c3)c(=O)c(C(=O)O)cn4C)c(N3CC(CN(C)C)C(F)(F)C3)c12` (stereo not drawn) [Example 1.143], the IC50 in assay [1] (Staphylococcus aureus) was less than 0.098 µM; in assay [2] (setting [4]) it was 0.109 µM; in assay [3] (Klebsiella pneumoniae), less than 0.098 µM.

As for `CNc1cc(F)c(F)c2c1[nH]c1ncc(-c3cnc4c(c3)c(=O)c(C(=O)O)cn4CCOC)c(N(C)C)c12` [Example 1.24], the IC50 is less than 0.098 µM in assay [1] (Staphylococcus aureus), 0.519 µM in assay [2] (setting [4]) and 0.238 µM in assay [3] (Klebsiella pneumoniae).

Regarding `CCNc1cc(F)c(F)c2c1[nH]c1ncc(-c3cnc4c(c3)c(=O)c(C(=O)O)cn4C)c(N3CCC(N(C)C)C3)c12` (stereo not drawn) [Example 1.104], the values for the IC50 in assay [1] (Staphylococcus aureus), in assay [2] (setting [4]) and in assay [3] (Klebsiella pneumoniae) were less than 0.098 µM, 0.137 µM and less than 0.098 µM, respectively.

In the case of `CNc1cc(F)c(F)c2c1[nH]c1ncc(-c3cnc4c(c3)c(=O)c(C(=O)O)cn4C)c(N3CC[C@]4(CN(C)CCO4)C3)c12` [Example 3.16B], the IC50 in assay [1] (Staphylococcus aureus) was less than 0.098 µM; in assay [2] (setting [4]), 0.19 µM; in assay [3] (Klebsiella pneumoniae), less than 0.098 µM.
